Test results: patent publication US20230348398A1 (Hoffmann-La Roche Inc., priority 2020, published 2023)

Target: human cGAS (residues 161-522) (Homo sapiens (Human), UniProt Q8N884)
Experiment: Malachite Green assay to measure cGAS activity (coupled enzymatic assay, phosphate detection)
Format: biochemical
Details: recombinant human cGAS (residues 161-522) 25 nM, 80 μM GTP, 100 nM ISD, 4 hour at RT, absorbance 620 nm
Description: Malachite Green Assay to Measure cGAS Activity Compounds were tested for cGAS inhibition in a coupled enzymatic assay based on Phosphate detection by Malachite Green. Final assay conditions were 20 mM TRIS pH 7.5 (Applichem), 5 mM MgCl2 (Sigma) and 0.01% BSA (Sigma) supplemented with […] (Sigma), 80 μM GTP (Sigma) and 100 nM Interferon Stimulating DNA (ISD) (Microsynth). Recombinantly expressed purified human cGAS (residues 161-522) was used at 25 nM. All compounds were prepared as 10 mM stock solutions in DMSO and a 16 pt dilution series in DMSO with a dilution factor of 2.5 was prepared. 1 μL of DMSO dilution series was transferred to 32.3 μL reaction buffer, mixed by pipetting up/down, spun for 1 minute at 3000 rpm and was visually inspected for precipitation. 5 μL of 3-fold enzyme stock solution were transferred to an empty 384-well Black/Clear Flat Bottom Polystyrene NBS (Corning) rows 3-24. Rows 1-2 were filled with assay buffer. Plates were spun 10 seconds at 1000 rpm (164×g). 5 μL of compound intermediate dilution was added and mixed by pipetting up/down to rows 3-24. Rows 1-2 were filled with 3.1% DMSO assay buffer. Plates were spun 10 seconds at 1000 rpm (164×g). 5 μL 3-fold Nucleotide/DNA mix was added to all wells to start the reaction. Plates were spun 10 seconds at 1000 rpm (164×g) and incubated for 4 hour at room temperature (RT) in the dark. 5 μL 4 U/mL PPase (Sigma) were added to all wells. Plates spun 10 seconds at 1000 rpm (164×g). 10 μL BioMol green Solution (Enzo Life Sciences) was added to all wells. Plates spun 10 seconds at 1000 rpm (164×g) and incubated 30 minutes at RT in the dark. Absorbance data was collected 620 nm on an EnVision Multilable Reader (Perkin Elmer) and the following measurement settings were used: excitation filter photometric was 620 nm; excitation from the top; measurement height was 1 mm; number of flashes was 30; number of flashes integrated was 1. All plates are checked for abnormalities and outliers in the Blank Control (no protein, row 1) and the Neutral Control (no compound, row 2) are excluded using the 3*SD rule. Data was normalized to 0 and 100% by Blank and Neutral Control and each curve was fitted and judged using the 4 parameter logistic equation to determine the IC50 for cGAS inhibition. Table 1 provides IC50 values (μM) for cGAS inhibition obtained for particular examples of the present invention as measured by the above-described assay.

Chain of human cGAS (residues 161-522) (Q8N884 161-522): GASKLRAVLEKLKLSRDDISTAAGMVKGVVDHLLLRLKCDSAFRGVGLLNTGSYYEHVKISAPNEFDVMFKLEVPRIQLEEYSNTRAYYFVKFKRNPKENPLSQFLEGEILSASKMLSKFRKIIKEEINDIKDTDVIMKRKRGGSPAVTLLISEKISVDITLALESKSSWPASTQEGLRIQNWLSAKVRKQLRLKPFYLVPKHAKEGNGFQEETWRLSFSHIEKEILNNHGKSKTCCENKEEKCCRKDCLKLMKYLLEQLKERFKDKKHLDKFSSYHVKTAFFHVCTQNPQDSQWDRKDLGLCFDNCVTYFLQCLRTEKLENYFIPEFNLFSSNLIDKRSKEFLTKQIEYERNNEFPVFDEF

Row | IC50 [nM] | SMILES
1 | 4680 | O=C(O)c1cc(-c2ccc(C3CC3)cc2Cl)cc2[nH]cnc12 [Example 1, 6-(2-Chloro-4-cyclopropylphenyl)-1-benzimidazole-4-carboxylic acid]
2 | 540 | Cc1cc(Cl)c(-c2cc(C(=O)O)c3nc[nH]c3c2)cc1F [Example 2, 6-(2-Chloro-5-fluoro-4-methylphenyl)-1H-benzo[d]imidazole-4-carboxylic acid]
3 | 550 | Cc1ccc(-c2cc(C(=O)O)c3nc[nH]c3c2)c(Cl)c1 [Example 3, 6-(2-Chloro-4-methylphenyl)-1H-benzo[d]imidazole-4-carboxylic acid]
4 | 4370 | CCOc1ccc(-c2cc(C(=O)O)c3nc[nH]c3c2)c(Cl)c1 [Example 4, 6-(2-Chloro-4-ethoxyphenyl)-1H-benzo[d]imidazole-4-carboxylic acid]
5 | 3260 | O=C(O)c1cc(-c2ccc(C(F)(F)F)cc2Cl)cc2[nH]cnc12 [Example 5, 6-(2-Chloro-4-(trifluoromethyl)phenyl)-1H-benzo[d]imidazole-4-carboxylic acid]
6 | 2080 | Cc1cc(Cl)ccc1-c1cc(C(=O)O)c2nc[nH]c2c1 [Example 6, 6-(4-Chloro-2-methylphenyl)-1H-benzo[d]imidazole-4-carboxylic acid]
7 | 260 | Cc1ccc(-c2cc(C(=O)O)c3nc(CN4CCN5C(=O)CCC5C4)[nH]c3c2)c(Cl)c1 (centres unmarked) [Example 7, 6-(2-Chloro-4-methylphenyl)-2-[(6-oxo-1,3,4,7,8,8a-hexahydropyrrolo[1,2-a]pyrazin-2-yl)methyl]-1H-benzimidazole-4-carboxylic acid]
8 | 590 | Cc1ccc(-c2cc(C(=O)O)c3nc(CN4CCN(CC(F)(F)F)CC4)[nH]c3c2)c(Cl)c1 [Example 8, 6-(2-Chloro-4-methylphenyl)-2-((4-(2,2,2-trifluoroethyl)piperazin-1-yl)methyl)-1H-benzo[d]imidazole-4-carboxylic acid]
9 | 380 | Cc1ccc(-c2cc(C(=O)O)c3nc(CN4CCN(C5CC5)CC4)[nH]c3c2)c(Cl)c1 [Example 9, 6-(2-Chloro-4-methylphenyl)-2-[(4-cyclopropylpiperazin-1-yl)methyl]-1H-benzimidazole-4-carboxylic acid]
10 | 510 | Cc1ccc(-c2cc(C(=O)O)c3nc(CN4CCN(Cc5ccccc5)C(=O)C4)[nH]c3c2)c(Cl)c1 [Example 10, 2-[(4-Benzyl-3-oxopiperazin-1-yl)methyl]-6-(2-chloro-4-methylphenyl)-1H-benzimidazole-4-carboxylic acid]
11 | 600 | Cc1ccc(-c2cc(C(=O)O)c3nc(CN4CCNC(C(F)(F)F)C4)[nH]c3c2)c(Cl)c1 (centres unmarked) [Example 11, 6-(2-Chloro-4-methylphenyl)-2-[[3-(trifluoromethyl)piperazin-1-yl]methyl]-1H-benzimidazole-4-carboxylic acid]
12 | 1140 | Cc1ccc(-c2cc(C(=O)O)c3nc(CN4CCN(C)CC4=O)[nH]c3c2)c(Cl)c1 [Example 12, 6-(2-Chloro-4-methylphenyl)-2-[(4-methyl-2-oxopiperazin-1-yl)methyl]-1H-benzimidazole-4-carboxylic acid]
13 | 550 | Cc1ccc(-c2cc(C(=O)O)c3nc(CO)[nH]c3c2)c(Cl)c1 [Example 13, 6-(2-Chloro-4-methylphenyl)-2-(hydroxymethyl)-1H-benzimidazole-4-carboxylic acid]
14 | 1160 | Cc1ccc(-c2cc(C(=O)O)c3nc(Nc4ccccc4)[nH]c3c2)c(Cl)c1 [Example 14, 6-(2-Chloro-4-methylphenyl)-2-(phenylamino)-1H-benzo[d]imidazole-4-carboxylic acid]
15 | 260 | Cc1ccc(-c2cc(C(=O)O)c3nc(CN4CCC(F)(F)CC4)[nH]c3c2)c(Cl)c1 [Example 15, 6-(2-Chloro-4-methylphenyl)-2-[(4,4-difluoropiperidin-1-yl)methyl]-1H-benzimidazole-4-carboxylic acid]
16 | 1510 | CC(=O)N1CCN(Cc2nc3c(C(=O)O)cc(-c4ccc(C)cc4Cl)cc3[nH]2)CC1 [Example 16, 2-[(4-Acetylpiperazin-1-yl)methyl]-6-(2-chloro-4-methylphenyl)-1H-benzimidazole-4-carboxylic acid]

Row | IC50 [nM] | SMILES
17 | 1230 | Cc1ccc(-c2cc(C(=O)O)c3nc(CN(C)c4ccccc4)[nH]c3c2)c(Cl)c1 [Example 17, 6-(2-Chloro-4-methylphenyl)-2-[(N-methylanilino)methyl]-1H-benzimidazole-4-carboxylic acid]
18 | 140 | Cc1ccc(-c2cc(C(=O)O)c3nc(CN4CCN(Cc5ccccc5)CC4)[nH]c3c2)c(Cl)c1 [Example 18, 2-[(4-Benzylpiperazin-1-yl)methyl]-6-(2-chloro-4-methylphenyl)-1H-benzimidazole-4-carboxylic acid]
19 | 1250 | Cc1ccc(-c2cc(C(=O)O)c3nc(CN4CCN(c5ccccc5)CC4)[nH]c3c2)c(Cl)c1 [Example 19, 6-(2-Chloro-4-methylphenyl)-2-[(4-phenylpiperazin-1-yl)methyl]-1H-benzimidazole-4-carboxylic acid]
20 | 590 | Cc1ccc(-c2cc(C(=O)O)c3nc(CN4CCNC(=O)C4)[nH]c3c2)c(Cl)c1 [Example 20, 6-(2-Chloro-4-methylphenyl)-2-[(3-oxopiperazin-1-yl)methyl]-1H-benzimidazole-4-carboxylic acid]
21 | 410 | Cc1ccc(-c2cc(C(=O)O)c3nc(CN4CCC(O)CC4)[nH]c3c2)c(Cl)c1 [Example 21, 6-(2-Chloro-4-methylphenyl)-2-[(4-hydroxypiperidin-1-yl)methyl]-1H-benzimidazole-4-carboxylic acid]
22 | 130 | Cc1ccc(-c2cc(C(=O)O)c3nc(CN4CCN(C)CC4)[nH]c3c2)c(Cl)c1 [Example 22, 6-(2-Chloro-4-methylphenyl)-2-[(4-methylpiperazin-1-yl)methyl]-1-benzimidazole-4-carboxylic acid]
23 | 480 | CCN(CC)Cc1nc2c(C(=O)O)cc(-c3ccc(C)cc3Cl)cc2[nH]1 [Example 23, 6-(2-Chloro-4-methylphenyl)-2-(diethylaminomethyl)-1-benzimidazole-4-carboxylic acid]
24 | 360 | Cc1ccc(-c2cc(C(=O)O)c3nc(CN4CCCCC4)[nH]c3c2)c(Cl)c1 [Example 24, 6-(2-Chloro-4-methylphenyl)-2-(piperidin-1-ylmethyl)-1H-benzimidazole-4-carboxylic acid]
25 | 690 | Cc1ccc(-c2cc(C(=O)O)c3nc(CNc4ccccc4)[nH]c3c2)c(Cl)c1 [Example 25, 2-(Anilinomethyl)-6-(2-chloro-4-methylphenyl)-1H-benzimidazole-4-carboxylic acid]
26 | 1020 | Cc1ccc(-c2cc(C(=O)O)c3nc(Cc4ccccc4)[nH]c3c2)c(Cl)c1 [Example 26, 2-Benzyl-6-(2-chloro-4-methylphenyl)-1H-benzo[d]imidazole-4-carboxylic acid]
27 | 1480 | Cc1ccc(-c2cc(C(=O)O)c3nc(Cc4ccc(Cl)cc4)[nH]c3c2)c(Cl)c1 [Example 27, 6-(2-Chloro-4-methylphenyl)-2-[(4-chlorophenyl)methyl]-1H-benzimidazole-4-carboxylic acid]
28 | 350 | Cc1ccc(-c2cc(C(=O)O)c3nc(CN4CCOCC4)[nH]c3c2)c(Cl)c1 [Example 28, 6-(2-Chloro-4-methylphenyl)-2-(morpholin-4-ylmethyl)-1H-benzimidazole-4-carboxylic acid]
29 | 590 | Cc1ccc(-c2cc(C(=O)O)c3nc(CN(C)C)[nH]c3c2)c(Cl)c1 [Example 29, 6-(2-Chloro-4-methylphenyl)-2-[(dimethylamino)methyl]-1H-benzimidazole-4-carboxylic acid]
30 | 3020 | Cc1ccc(-c2cc(C(=O)O)c3nc(C(F)(F)F)[nH]c3c2)c(Cl)c1 [Example 30, 6-(2-Chloro-4-methylphenyl)-2-(trifluoromethyl)-1H-benzimidazole-4-carboxylic acid]
31 | 840 | Cc1ccc(-c2cc(C(=O)O)c3nc(NCc4ccccc4)[nH]c3c2)c(Cl)c1 [Example 31, 2-(Benzylamino)-6-(2-chloro-4-methylphenyl)-1H-benzo[d]imidazole-4-carboxylic acid]
32 | 2410 | Cc1ccc(-c2cc(C(=O)O)c3nc(C)[nH]c3c2)c(Cl)c1 [Example 32]
